From ChEMBL document CHEMBL3272289, “Amino acids. 1. alpha-Hydroxymethylphenylalanines” (1976)
Active and inactive are the calls of the source. No cut-off for these calls is given here.

Key:
Rattus norvegicus [1] = experiment: Hypotensive effect in conscious spontaneously hypertensive rat assessed as reduction in blood pressure at 100 mg/kg, po administered as single dose; assay type: functional
Rattus norvegicus [2] = experiment: Hypotensive effect in conscious spontaneously hypertensive rat assessed as reduction in blood pressure at 50 mg/kg, po administered as single dose; assay type: functional
Rattus norvegicus [3] = experiment: Hypotensive effect in conscious spontaneously hypertensive rat assessed as reduction in blood pressure at 100 to 300 mg/kg, po; assay type: functional, organism-based

C[C@](N)(Cc1ccc(O)c(O)c1)C(=O)O [METHYLDOPA]
Activity (Rattus norvegicus [1]): 85 mmHg
Activity (Rattus norvegicus [2]): 44 mmHg

NC(CO)(Cc1ccc(O)cc1)C(=O)O (centres undefined)
Activity (Rattus norvegicus [3]): inactive

NC(CO)(Cc1ccc(O)c(O)c1)C(=O)O (centres undefined)
Activity (Rattus norvegicus [3]): inactive
